Measured values as given in US9770429B2, “4-methylsulfonyl-2-butenenitrile and its pharmaceutical use” (OLATEC THERAPEUTICS LLC, priority 2013, dated 2017).

System: arachidonic acid-induced ear swelling
Assay: topical arachidonic acid-induced ear swelling model in mice
Format: in vivo
Conditions: for % Inhibition of ear swelling: male ICR mice, topical application 30 min before and 15 min after arachidonic acid, measured at 90 minutes after arachidonic acid, indomethacin 14 mM (0.1 mg/20 μL), test compound 375 mM (1.1 mg/20 μL), relative to vehicle
Method: 4-Methylsulfonyl-2-butenenitrile, prepared from Example 1, was used in this experiment. The test compound, indomethacin (positive control), and vehicle were evaluated for anti-inflammatory activity in a topical arachidonic acid-induced ear swelling model in mice. Male ICR mice weighing 22±2 g were used and randomly divided; the test compound and vehicle control had 10 mice, and indomethacin had 5 mice. Arachidonic Acid (0.5 mg in 20 μl of acetone:ethanol/1:1) was applied topically to the anterior and posterior surfaces of the right ear of each mouse. Test substances and vehicle, as listed in Table 2 were similarly applied 30 min before and 15 min after arachidonic acid application. The thickness of the right ear and the left ear was measured and the difference calculated as an indication of the inflammation in the right ear. Ear swelling was measured by a Dyer model micrometer gauge at 60 and 90 minutes after arachidonic acid application as an index of inflammation. Percent inhibition was calculated according to the formula: Ic−It/Ic×100, where Ic and It refers to increase of ear thickness (mm) in control and treated mice, respectively. ANOVA and Dunnett's test were employed to ascertain significant difference between vehicle control and treated groups. Significance is set at P<0.05 level.

Compound	anti-inflammatory activity in the mouse ear swelling model (in words) (applied topically, inflammation induced by arachidonic acid)	% Inhibition of ear swelling [%]
CS(=O)(=O)C/C=C/C#N [4-methylsulfonyl-2-butenenitrile]	anti-inflammatory	22
COc1ccc2c(c1)c(CC(=O)O)c(C)n2C(=O)c1ccc(Cl)cc1 [Indomethacin, indomethacin, reference compound]		58
